Where “and” joins values, the source holds several entries; their conditions need not be identical. Identical values can stand only once.
Legend:
hBchE [1] = target: T1, hBchE (Homo sapiens, UniProt P06276); assay: Kinetic analysis of AB23A hydrolysis in hBchE; format: in vitro ADME; details: 1 h incubation
T1 construct: purchased Sigma-Aldrich Lot SLCG5158
Protocol: (§1) The enzymatic kinetics of AB23A hydrolysis in different tissue preparations (HLMs, HIMs, human plasma) and human recombinant enzymes (hCES1A, hCES2A, hSA, hBchE) were analyzed. The incubation system (200 μL) consisted of PBS, each tested enzyme, and AB23A (ranging from 0 to 1,000 μM). After incubating for 1 h, the supernatants were then used for LC-UV analysis. The kinetic parameters of AB23A hydrolysis were fitted by the following Michaelis−Menten Eq. 1 ([Zhang et al., 2022]). V=(Vmax×[S])⁄(Km+[S]) (1) Here, K m is the Michaelis constant of AB23A hydrolysis, V max is the maximum velocity of AB23A hydrolysis, V max /K m is used to calculate the intrinsic clearance (CL int ).

[2] = Hydrolytic half-life of AB23A in human plasma; format: in vitro ADME; details: human plasma (25% diluted); 25% dilution human plasma, PBS pH 7.4; read-out: t1/2 (hydrolytic/metabolic half-life)
Protocol: The hydrolytic half-lives (t1/2) of AB23A in human plasma and different human tissue preparations were carried out according to the procedure of in vitro metabolic stability studies ([Ge et al., 2013]). The incubation mixture (1,000 μL) consisted of PBS (pH 7.4), enzyme sources (HLMs/HIMs/human plasma) and AB23A. 25% diluted human plasma was used, the protein concentrations of other tissue microsomes were 0.1 mg/mL. The 100 μL incubation mixture was moved to another containing ice-cold acetonitrile tube at different time points (0, 5, 15, 30, 45, 60, 90, 120 min). All samples were centrifuged for 30 min at 20,000 g 4°C and took the supernatants for LC-UV analysis.
The incubation conditions were as follows: the classic incubation system included 100 mM potassium phosphate buffer (PBS, pH 7.4), enzyme sources, and AB23A. In all incubations, PBS and enzyme sources were pre-incubation at 37 °C for 3 min and the reaction was started by adding AB23A (the organic solvent content at most 1%). After reacting 1 h, ice-cold acetonitrile was added to terminate the reaction and precipitate proteins. The samples were centrifuged for 30 min at 20000 × g, 4 °C, and the supernatants were taken for further LC-UV analysis.

hBchE [3] = target: T1, hBchE; assay: Reaction phenotyping assay of AB23A hydrolysis, hBchE; format: in vitro ADME; details: hBchE 5 μg/mL, AB23A 20 μM, 60 min, pH 7.4 at 37°C
Protocol: The hydrolytic rates of AB23A in different human recombinant enzymes (hCES1A, hCES2A, hPL, hIAH1, hNotum, hAchE, hBchE, hSA, hCTSA, hMAGL) were assayed. The incubation system included PBS, each tested enzyme (5 μg/mL, final concentration), and AB23A (20 μM). After incubation for 1 h at 37°C, ice-cold acetonitrile was added to terminate the reaction and precipitate proteins. The supernatants by centrifuging were used to quantify the formation rates of AB by LC-UV analysis. The detection wavelength of AB was 196 nm.

[4] = Kinetic analysis of AB23A hydrolysis in HIMs; format: in vitro ADME, human
Protocol: as §1

T1 sequence (P06276 29-602): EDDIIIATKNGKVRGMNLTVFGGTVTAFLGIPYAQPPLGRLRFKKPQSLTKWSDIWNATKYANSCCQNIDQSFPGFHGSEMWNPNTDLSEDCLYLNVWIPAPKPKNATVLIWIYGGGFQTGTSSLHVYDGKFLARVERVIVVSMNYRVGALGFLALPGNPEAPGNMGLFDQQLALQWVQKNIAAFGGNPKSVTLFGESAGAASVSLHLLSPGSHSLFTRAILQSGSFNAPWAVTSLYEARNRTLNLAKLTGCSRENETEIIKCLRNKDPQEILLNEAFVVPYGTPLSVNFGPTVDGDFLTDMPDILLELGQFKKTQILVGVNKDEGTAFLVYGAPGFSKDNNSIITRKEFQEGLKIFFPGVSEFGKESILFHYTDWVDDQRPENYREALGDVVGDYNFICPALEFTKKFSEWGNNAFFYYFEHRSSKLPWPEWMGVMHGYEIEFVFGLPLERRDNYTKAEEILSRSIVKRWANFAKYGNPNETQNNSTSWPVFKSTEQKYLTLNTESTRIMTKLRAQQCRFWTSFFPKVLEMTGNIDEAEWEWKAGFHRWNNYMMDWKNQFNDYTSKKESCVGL

## CC(=O)O[C@H](C[C@@H](C)C1=C2C[C@H](O)C3[C@@]4(C)CCC(=O)C(C)(C)C4CC[C@]3(C)[C@@]2(C)CC1)[C@H]1OC1(C)C (some centres unmarked) [AB23A, Alisol B 23-acetate]
hBchE [1]
  K m of AB23A hydrolysis: 35.78 ± 3.40 µM
[2]
  half-life: 1.916 ± 0.00333 h
hBchE [3]
  Hydrolytic rate (formation of AB) in reaction phenotyping: faster hydrolytic rate
[4]
  K m of AB23A hydrolysis: 164.00 ± 18.63 µM
  V max of AB23A hydrolysis: 2.93 ± 0.10 nmol/min/mg protein and 2.93 ± 0.10 ^a nmol/min/mg protein
